Residues, ends and D or L forms follow the SMILES beside them.
Molecular target: T1, hsortilin (Homo sapiens, UniProt Q99523)
T1 construct: Human sortilin (hsortilin) (Ser78-Asn755) with C-terminal 6-His tag; purchased R&D Systems, Inc. (Minneapolis, Minn.)
T1 sequence (Q99523 78-755): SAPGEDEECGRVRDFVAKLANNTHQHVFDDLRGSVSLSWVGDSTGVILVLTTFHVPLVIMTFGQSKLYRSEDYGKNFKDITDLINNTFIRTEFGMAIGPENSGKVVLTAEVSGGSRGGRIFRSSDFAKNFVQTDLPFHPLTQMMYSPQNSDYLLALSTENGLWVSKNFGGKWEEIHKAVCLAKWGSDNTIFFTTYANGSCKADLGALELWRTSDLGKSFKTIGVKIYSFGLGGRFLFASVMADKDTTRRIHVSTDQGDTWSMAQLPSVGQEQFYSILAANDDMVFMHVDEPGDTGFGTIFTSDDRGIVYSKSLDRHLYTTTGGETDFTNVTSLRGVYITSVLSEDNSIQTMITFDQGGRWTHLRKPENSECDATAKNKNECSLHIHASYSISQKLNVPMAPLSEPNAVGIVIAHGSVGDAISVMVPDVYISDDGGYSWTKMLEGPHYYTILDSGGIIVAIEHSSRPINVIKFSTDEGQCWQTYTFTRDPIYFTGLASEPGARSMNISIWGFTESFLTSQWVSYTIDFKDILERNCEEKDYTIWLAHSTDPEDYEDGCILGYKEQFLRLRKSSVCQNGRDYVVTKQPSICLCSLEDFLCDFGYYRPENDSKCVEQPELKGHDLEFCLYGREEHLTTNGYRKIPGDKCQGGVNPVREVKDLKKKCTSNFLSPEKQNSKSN
Test: Surface plasmon resonance on hsortilin immobilized on CM7 chips (Example 2)
Format: binding
Description: Surface plasmon resonance (SPR) measurements were performed on a Biacore T200 instrument equipped with two separate CM7 sensor chips, one with about 20,000 response units (RU) and another with about 27,000 RU of hsortilin covalently immobilized. […] For all other SPR injections, regeneration consisted of injections of running buffer alone. GE BIAcore T200 evaluation software version 3.0 (BIAevaluate) was used to analyze and export results. […] PIP3 containing nanodiscs were flowed at 2:1 dilutions to obtain kinetic data fitted using about 27,000 RU CM7 surface. Kinetic fit generated with BIAevaluate and local Rmax using Langmuir 1:1 binding model exported from BIAevaluate to Microsoft Excel 2016 with fit indicated by the black line.

SMILES | Kd (C-term NT alone, steady state) [nM] | IC50 (100 nM NT, read-out: IC50 for inhibition of full length NT binding to sortilin) [nM]
CC[C@H](C)[C@H](NC(=O)[C@H](Cc1ccc(O)cc1)NC(=O)[C@@H]1CCCN1)C(=O)N[C@@H](CC(C)C)C(=O)O [C-term NT, P—Y-I-L, reference compound] (H-PYIL-OH; N-terminus and C-terminus assumed) | 138 | –
CCCC(=O)OC[C@H](COP(=O)(O)O[C@H]1[C@H](O)[C@@H](OP(=O)(O)O)[C@H](OP(=O)(O)O)[C@@H](OP(=O)(O)O)[C@H]1O)OC(=O)CCC [diC4-PIP3, dibutanoyl PIP3, reference compound] | – | ~750

From US10478421B1, “Sortilin binding compounds, formulations, and uses thereof” (University of Florida, priority 2016, dated 2019)
